The record followed here is patent US5776949A, “2-(1H) quinolinone compounds” (Adir et Compagnie, priority 1997, dated 1998).

Series [1] deals with NMDA receptor. The series is described as follows: glycine/NMDA-induced currents in Xenopus oocytes injected with rat cerebral cortex poly(A+) mRNA (2-electrode voltage-clamp). In kind it is cell-based. The conditions noted are these: glycine/NMDA 3/30 μM; MgCl2 absent, CaCl2 2 mM; product applied 30 seconds before and during agonist. The method, then:
(§1) Their efficacy may be studied by means of electrophysiological techniques in vitro and especially by means of the measurement of the currents induced by the glutamatergic agonists in the oocyte of Xenopus.
(§2) Xenopus oocytes are injected with 50 ng of poly(A^+) mRNA isolated from rat cerebral cortex and incubated for 2 to 3 days at 18° C. so as to allow the protein expression thereof. The inflow of currents induced by the EAAs are measured in a medium of composition: NaCl (82.5 mM), KCl (2.5 mM), CaCl2 (1 mM), MgCl2 (1 mM), NaH2 PO4 (1 mM), HEPES (5 mM), pH 7.4 by the 2 electrode Voltage-clamp method (voltage=-60 mV). To measure the currents induced by NMDA and glycine, MgCl2 is absent from the medium and CaCl2 is supplied at the concentration of 2 mM. The EAA agonists inducing the currents are used at the following concentrations: kainate: 100 μM; AMPA: 30 μM; glycine/NMDA: 3/30 μM. The product studied is applied 30 seconds before and during the application of the agonist.

The test system of series [2] is AMPA receptor. As to the kind of experiment: AMPA-induced currents in Xenopus oocytes injected with rat cerebral cortex poly(A+) mRNA (2-electrode voltage-clamp). In kind it is cell-based. The method, then: as §1, §2
Series [3] in a line: Solubility in water.
Series [4] concerns cerebral infarct. As to the kind of experiment: Antineurodegenerative activity in vivo: occlusion of the middle cerebral artery (MCA), infarct volume. The conditions noted are these: rats; for reduction of cortical edematous infarct volume: 20 mg/kg i.v., 1 hour after arterial occlusion. The method, then: The occlusion of the sylvian artery (or middle cerebral artery MCA) is at the origin of about 70% of cases of cerebral vascular accidents in man. This type of cerebral ischemia may be reproduced very precisely in rats by intracerebral ligature of the MCA. This definitive occlusion causes, within 24 hours, the formation of a striatocortical infarct of identical location to that observed in a clinical situation. The infarct is perfectly delimited and is therefore histologically measurable. This infarct is of the edematous type. It changes within the following 3 days into a definitive necrotic infarct. The excessive liberation of glutamate is a major pathological feature for the genesis of the cerebral infarct. An antiischemic neuroprotective compound should prevent the formation of this infarct at 24 hours and on its necrotic maturation at 96 hours.
The compounds of the invention are compounds with a potent antiischemic effect, even during post-ischemic delayed treatment (treatment by the i.v. route 1 hour after the arterial occlusion). […] This is a major activity since it also prevents necrotic maturation. Thus, when a 3-day follow-up treatment (10 mg/kg i.p. twice per day) is carried out after the initial i.v. injection (20 mg/kg), the compound of Example 1decreases the volume of the terminal infarct by 44%.

The test system of series [5] is glutamate-dependent convulsive attacks. The series is described as follows: Anti-convulsant activity in vivo: convulsions triggered by sound stimulus in DBA2 mice.
Source text: Likewise, in the DBA2 mice, glutamate-dependent convulsive attacks may be triggered by subjecting the animals to a sound stimulus of high frequency (14 kHz, 103 dB). The anticonvulsion effects are objectivated by the capacity to prevent convulsions arrival and the death which follows.

A word on the IC50: it is the point on the concentration scale where inhibition reaches its midpoint. Lower therefore signals greater potency. `O=c1[nH]c2cc([N+](=O)[O-])c([N+](=O)[O-])cc2cc1S(=O)(=O)O` [Example 2, 6,7-Dinitro-2-(1H)-quinolinone-3-sulfonic acid]: the IC50 came out at 8 µM in series [1]; 0.2 µM in series [2] (AMPA 30 μM, voltage -60 mV, product applied 30 seconds before and during agonist). Moreover, in series [2] (AMPA versus NMDA, Xenopus oocytes), the “selectivity for the AMPA receptor” value came out at 40 times. In series [3], the “solubility in water (in words)” value is “soluble in water”. For the same molecule, the “reduction of cortical edematous infarct volume” value in series [4] worked out at 27%.

The ED50 is the dose at which the effect has come halfway, by size or by number of responders. On to `O=c1[nH]c2cc([N+](=O)[O-])ccc2cc1S(=O)(=O)O` [Example 1, 7-Nitro-2-(1H)-quinolinone-3-sulfonic acid], for which the inhibition of mortality entry in series [5] (50 mg/kg i.p., 30 minutes before sound stimulus) is “more than 80%”. Further, the 50% effective dose (ED50) in series [5] (Mus musculus, ip, 0.5 h, i.p. 30 minutes before sound stimulus (14 kHz, 103 dB), read-out: ED50 (anticonvulsant protection)) came out at 26.9 mg/kg. Besides, in series [5] (i.p. 30 minutes before sound stimulus), the “anticonvulsant effects (in words)” value is given as “strongly protects the animals”. Besides, in series [4] (20 mg/kg i.v. then 3-day follow-up 10 mg/kg i.p. twice per day), the “decrease of the volume of the terminal infarct” value is on record as 44%. Besides, the “reduction of cortical edematous infarct volume” value in series [4] is on record as 45%.
